Test system: corneocytes
Test: In vitro test of desquamating efficacy (corneocytes liberated, expressed as protein concentration)
Assay type: cell-based
Method: An in vitro test was carried out in order to determine the efficacy of phthalimidoperoxycaproic acid compared with a composition comprising 30% of glycolic acid and 70% of water. The number of corneocytes liberated is expressed as protein concentration. After applying a composition comprising 17% of phthalimidoperoxycaproic acid, the protein concentration is about 320 μg/ml, while it is about 210 μg/ml for the composition comprising glycolic acid.

In the case of `O=C(O)CO` [glycolic acid, reference compound], the “number of corneocytes liberated expressed as protein concentration” value (composition comprising 30% of glycolic acid and 70% of water) is reported as “about 210 μg/ml”.
In the case of `O=C(CCCCCN1C(=O)c2ccccc2C1=O)OO` [phthalimidoperoxycaproic acid], the “number of corneocytes liberated expressed as protein concentration” value (after applying a composition comprising 17% of phthalimidoperoxycaproic acid) is reported as “about 320 μg/ml” and the “desquamating efficacy compared with reference” value (compared with glycolic acid (AG) at 30%) is reported as “high desquamating efficacy greater than the reference glycolic acid”.

Source: patent US20100189675A1, “COSMETIC USE OF AN IMIDOPERCARBOXYLIC ACID DERIVATIVE AS DESQUAMATING AGENT” (L'Oreal, priority 2007, published 2010)
